Data published in ChEMBL document CHEMBL1955743, “Potent inhibitors of LpxC for the treatment of Gram-negative infections” (J Med Chem, 2012).
Converted amounts (≈) assume the structure as drawn.

Key:
Klebsiella aerogenes = test: Antibacterial activity against Enterobacter aerogenes after 16 to 20 hrs by broth microdilution method; type: functional
Stromelysin-2 = Stromelysin-2 (Homo sapiens, UniProt P09238); test: Inhibition of human MMP10
Klebsiella pneumoniae = test: Antibacterial activity against Klebsiella pneumoniae after 16 to 20 hrs by broth microdilution method; type: functional
[1] = molecular target: Matrix metalloproteinase-20 (Homo sapiens, UniProt O60882); test: Inhibition of human MMP20
Matrix metalloproteinase-20, sequence (O60882 whole entry): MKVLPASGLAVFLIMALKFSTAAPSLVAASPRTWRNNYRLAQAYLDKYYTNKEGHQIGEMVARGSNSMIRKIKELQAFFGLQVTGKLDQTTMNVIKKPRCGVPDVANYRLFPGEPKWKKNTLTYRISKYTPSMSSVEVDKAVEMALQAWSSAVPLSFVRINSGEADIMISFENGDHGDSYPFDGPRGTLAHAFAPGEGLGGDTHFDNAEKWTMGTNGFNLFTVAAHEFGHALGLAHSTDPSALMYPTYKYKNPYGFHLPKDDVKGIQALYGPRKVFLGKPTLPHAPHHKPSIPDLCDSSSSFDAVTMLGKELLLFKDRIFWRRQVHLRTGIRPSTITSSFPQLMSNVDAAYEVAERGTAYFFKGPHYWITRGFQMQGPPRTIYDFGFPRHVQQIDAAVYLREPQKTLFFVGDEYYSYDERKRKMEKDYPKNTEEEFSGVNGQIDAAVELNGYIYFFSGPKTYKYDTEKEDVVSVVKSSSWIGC

Interstitial collagenase = Interstitial collagenase (Homo sapiens, UniProt P03956); test: Inhibition of human MMP1
Interstitial collagenase, sequence (P03956 whole entry): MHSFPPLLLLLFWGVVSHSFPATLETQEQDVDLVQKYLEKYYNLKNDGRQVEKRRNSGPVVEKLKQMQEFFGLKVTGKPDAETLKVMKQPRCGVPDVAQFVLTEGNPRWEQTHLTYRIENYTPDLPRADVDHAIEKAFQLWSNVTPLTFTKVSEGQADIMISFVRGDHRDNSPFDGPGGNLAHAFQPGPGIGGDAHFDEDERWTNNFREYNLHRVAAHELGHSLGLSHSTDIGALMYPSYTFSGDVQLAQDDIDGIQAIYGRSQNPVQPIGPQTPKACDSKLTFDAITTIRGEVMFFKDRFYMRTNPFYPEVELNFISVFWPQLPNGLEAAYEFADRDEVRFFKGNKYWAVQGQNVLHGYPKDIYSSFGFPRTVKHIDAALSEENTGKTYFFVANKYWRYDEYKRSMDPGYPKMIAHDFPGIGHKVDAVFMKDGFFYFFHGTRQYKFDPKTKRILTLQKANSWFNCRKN

Pseudomonas aeruginosa [2] = test: Antibacterial activity against mexAB-OprM,mexXY,MexZ-deficient Pseudomonas aeruginosa PAO280 by broth microdilution technique; type: functional
[3] = molecular target: Matrix metalloproteinase-26 (Homo sapiens, UniProt Q9NRE1); test: Inhibition of human MMP26
[4] = AUC in rat at 10 mg/kg, iv; type: ADME, organism-based; set-up: dose 10 mg/kg, route intravenous; conditions: plasma
Pseudomonas aeruginosa [5] = test: Antibacterial activity against Pseudomonas aeruginosa after 16 to 20 hrs by broth microdilution method; type: functional
[6] = molecular target: T1, Sodium-dependent noradrenaline transporter (Homo sapiens, UniProt P23975); test: Inhibition of human norepinephrine transporter
T1 sequence (P23975 whole entry): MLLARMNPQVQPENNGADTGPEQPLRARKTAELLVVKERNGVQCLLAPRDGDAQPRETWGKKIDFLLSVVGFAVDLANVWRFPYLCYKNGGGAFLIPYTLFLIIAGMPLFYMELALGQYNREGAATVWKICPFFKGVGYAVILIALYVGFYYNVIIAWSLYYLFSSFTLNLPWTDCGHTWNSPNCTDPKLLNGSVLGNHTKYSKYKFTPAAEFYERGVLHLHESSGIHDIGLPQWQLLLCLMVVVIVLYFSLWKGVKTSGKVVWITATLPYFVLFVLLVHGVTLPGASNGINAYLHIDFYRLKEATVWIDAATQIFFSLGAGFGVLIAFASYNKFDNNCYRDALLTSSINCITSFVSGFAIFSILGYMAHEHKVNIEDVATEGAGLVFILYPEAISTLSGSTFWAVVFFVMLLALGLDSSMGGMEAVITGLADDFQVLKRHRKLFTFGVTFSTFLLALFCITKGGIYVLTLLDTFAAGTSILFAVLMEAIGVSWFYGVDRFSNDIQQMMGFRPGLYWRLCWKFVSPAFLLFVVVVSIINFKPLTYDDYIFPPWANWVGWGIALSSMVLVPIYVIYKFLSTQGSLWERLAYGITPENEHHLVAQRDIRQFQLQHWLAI

Escherichia coli = test: Antibacterial activity against Escherichia coli after 16 to 20 hrs by broth microdilution method; type: functional
[7] = molecular target: Matrix metalloproteinase-16 (Homo sapiens, UniProt P51512); test: Inhibition of human MMP16
Matrix metalloproteinase-16, sequence (P51512 whole entry): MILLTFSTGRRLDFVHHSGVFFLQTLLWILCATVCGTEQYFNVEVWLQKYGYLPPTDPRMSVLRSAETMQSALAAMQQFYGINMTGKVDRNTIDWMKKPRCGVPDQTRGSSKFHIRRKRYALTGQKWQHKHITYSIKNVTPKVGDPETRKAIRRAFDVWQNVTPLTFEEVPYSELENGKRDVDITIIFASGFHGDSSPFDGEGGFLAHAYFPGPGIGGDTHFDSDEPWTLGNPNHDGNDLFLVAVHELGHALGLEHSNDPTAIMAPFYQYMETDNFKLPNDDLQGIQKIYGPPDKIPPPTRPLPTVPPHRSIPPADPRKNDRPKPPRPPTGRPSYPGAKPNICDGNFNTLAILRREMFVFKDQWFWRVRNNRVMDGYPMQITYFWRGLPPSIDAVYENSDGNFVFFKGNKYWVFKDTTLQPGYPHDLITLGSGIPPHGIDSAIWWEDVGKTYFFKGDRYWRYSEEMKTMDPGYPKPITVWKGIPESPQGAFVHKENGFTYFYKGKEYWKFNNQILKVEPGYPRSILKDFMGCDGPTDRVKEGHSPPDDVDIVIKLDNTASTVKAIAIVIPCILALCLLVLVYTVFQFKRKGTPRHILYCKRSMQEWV

Stromelysin-1 = Stromelysin-1 (Homo sapiens, UniProt P08254); test: Inhibition of human MMP3
Stromelysin-1, sequence (P08254 whole entry, the tested form may be a part): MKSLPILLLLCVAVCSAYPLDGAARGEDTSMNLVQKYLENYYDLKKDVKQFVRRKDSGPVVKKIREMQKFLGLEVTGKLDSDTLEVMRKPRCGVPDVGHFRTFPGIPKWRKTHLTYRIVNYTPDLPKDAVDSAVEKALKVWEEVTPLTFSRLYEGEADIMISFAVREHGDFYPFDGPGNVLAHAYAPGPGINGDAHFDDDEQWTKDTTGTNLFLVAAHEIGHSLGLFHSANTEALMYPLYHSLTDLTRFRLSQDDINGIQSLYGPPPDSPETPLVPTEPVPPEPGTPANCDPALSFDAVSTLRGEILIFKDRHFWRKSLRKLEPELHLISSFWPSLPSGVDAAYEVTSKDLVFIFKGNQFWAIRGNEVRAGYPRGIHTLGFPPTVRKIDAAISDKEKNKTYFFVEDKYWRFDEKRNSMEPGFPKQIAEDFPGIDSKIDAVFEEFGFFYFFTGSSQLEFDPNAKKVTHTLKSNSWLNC

[8] = molecular target: Disintegrin and metalloproteinase domain-containing protein 17 (Homo sapiens, UniProt P78536); test: Inhibition of human TACE
[9] = Volume of distribution at steady state in rat at 10 mg/kg, iv; type: ADME, organism-based; set-up: dose 10 mg/kg, route intravenous; conditions: in vivo, read-out: Vdss
Citrobacter freundii = test: Antibacterial activity against Citrobacter freundii after 16 to 20 hrs by broth microdilution method; type: functional
Matrilysin = Matrilysin (Homo sapiens, UniProt P09237); test: Inhibition of human MMP7
Matrilysin, sequence (P09237 whole entry): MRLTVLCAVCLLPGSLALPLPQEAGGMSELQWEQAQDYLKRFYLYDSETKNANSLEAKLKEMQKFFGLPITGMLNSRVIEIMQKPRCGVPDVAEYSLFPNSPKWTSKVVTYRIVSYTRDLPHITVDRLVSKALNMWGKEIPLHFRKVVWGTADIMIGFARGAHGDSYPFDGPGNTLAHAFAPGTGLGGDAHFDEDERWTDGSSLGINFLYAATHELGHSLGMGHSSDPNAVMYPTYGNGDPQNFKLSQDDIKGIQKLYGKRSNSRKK

[10] = molecular target: Matrix metalloproteinase-15 (Homo sapiens, UniProt P51511); test: Inhibition of human MMP15
Collagenase 3 = Collagenase 3 (Homo sapiens, UniProt P45452); test: Inhibition of human MMP13
[11] = Fraction unbound in human plasma; type: ADME, cell-free
[12] = molecular target: Matrix metalloproteinase-24 (Homo sapiens, UniProt Q9Y5R2); test: Inhibition of human MMP24
Matrix metalloproteinase-24, sequence (Q9Y5R2 whole entry): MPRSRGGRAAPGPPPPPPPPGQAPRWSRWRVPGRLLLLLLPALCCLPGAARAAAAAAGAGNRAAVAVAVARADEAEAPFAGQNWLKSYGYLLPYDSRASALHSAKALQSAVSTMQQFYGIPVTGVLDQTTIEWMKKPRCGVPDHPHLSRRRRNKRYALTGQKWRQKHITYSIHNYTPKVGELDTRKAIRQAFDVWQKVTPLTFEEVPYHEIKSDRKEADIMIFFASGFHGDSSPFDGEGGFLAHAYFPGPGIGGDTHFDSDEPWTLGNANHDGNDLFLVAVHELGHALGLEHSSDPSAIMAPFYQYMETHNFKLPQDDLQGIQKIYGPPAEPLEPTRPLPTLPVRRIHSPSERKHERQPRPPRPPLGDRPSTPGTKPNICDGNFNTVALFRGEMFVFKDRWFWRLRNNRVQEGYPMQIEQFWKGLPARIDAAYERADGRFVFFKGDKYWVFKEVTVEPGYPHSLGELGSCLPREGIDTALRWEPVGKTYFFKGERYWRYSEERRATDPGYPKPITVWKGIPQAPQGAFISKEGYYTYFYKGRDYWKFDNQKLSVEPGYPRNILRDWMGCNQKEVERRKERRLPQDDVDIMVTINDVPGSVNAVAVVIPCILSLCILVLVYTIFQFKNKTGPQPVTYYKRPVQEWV

Staphylococcus aureus = test: Antibacterial activity against Staphylococcus aureus ATCC 29213 after 16 to 20 hrs by broth microdilution method; type: functional
[13] = molecular target: Matrix metalloproteinase-14 (Homo sapiens, UniProt P50281); test: Inhibition of human MMP14
[14] = molecular target: Matrix metalloproteinase-25 (Homo sapiens, UniProt Q9NPA2); test: Inhibition of human MMP25
Pseudomonas aeruginosa [15] = test: Antibacterial activity against penicillin-resistant,quinolone-sensitive Pseudomonas aeruginosa UC12120 clinical isolate infected in sc dosed mouse assessed as host survival administered 0.5 and 4 hrs post-infection measured after 96 hrs; type: functional; conditions: read-out: PD50
Pseudomonas aeruginosa [16] = test: Antibacterial activity against penicillin-resistant,quinolone-sensitive Pseudomonas aeruginosa UC12120 clinical isolate infected in mouse assessed as log reduction in bacterial burden in spleen administered 0.5 and 4 hrs post-infection measured after 24 hrs; type: functional
[17] = Half life in rat at 10 mg/kg, iv; type: ADME, organism-based; set-up: dose 10 mg/kg, route intravenous; conditions: in vivo
Pseudomonas aeruginosa [18] = test: Antibacterial activity against penicillin-resistant,quinolone-sensitive Pseudomonas aeruginosa UC12120 clinical isolate infected in sc dosed mouse administered 0.5 and 4 hrs post-infection measured after 24 hrs; type: functional
Pseudomonas aeruginosa [19] = test: Antibacterial activity against Pseudomonas aeruginosa clinical isolates after 16 to 20 hrs by broth microdilution method; type: functional
[20] = molecular target: Macrophage metalloelastase (Homo sapiens, UniProt P39900); test: Inhibition of human MMP12
Macrophage metalloelastase, sequence (P39900 whole entry): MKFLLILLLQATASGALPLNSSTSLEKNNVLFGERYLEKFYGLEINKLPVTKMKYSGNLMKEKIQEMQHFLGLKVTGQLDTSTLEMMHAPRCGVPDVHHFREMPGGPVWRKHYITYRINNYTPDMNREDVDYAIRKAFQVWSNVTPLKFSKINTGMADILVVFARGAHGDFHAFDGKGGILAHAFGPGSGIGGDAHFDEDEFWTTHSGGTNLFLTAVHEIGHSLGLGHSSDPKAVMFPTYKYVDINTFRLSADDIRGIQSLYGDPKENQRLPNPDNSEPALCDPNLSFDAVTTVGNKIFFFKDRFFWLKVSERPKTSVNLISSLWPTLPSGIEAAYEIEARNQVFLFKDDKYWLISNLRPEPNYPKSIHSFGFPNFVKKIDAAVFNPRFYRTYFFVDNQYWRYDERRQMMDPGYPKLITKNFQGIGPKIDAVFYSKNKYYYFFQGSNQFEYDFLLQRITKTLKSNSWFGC

Neutrophil collagenase = Neutrophil collagenase (Homo sapiens, UniProt P22894); test: Inhibition of human MMP8
Acinetobacter baumannii = test: Antibacterial activity against Acinetobacter baumannii after 16 to 20 hrs by broth microdilution method; type: functional
[21] = Inhibition of PDE11
[22] = molecular target: T1, Sodium-dependent noradrenaline transporter; conditions: 10 uM
Description: Inhibition of human norepinephrine transporter at 10 uM

Pseudomonas aeruginosa [23] = test: Antibacterial activity against Pseudomonas aeruginosa PAO1 after 16 to 20 hrs by broth microdilution method; type: functional
[24] = Clearance in rat at 10 mg/kg, iv; type: ADME, organism-based; set-up: dose 10 mg/kg, route intravenous; conditions: in vivo
[25] = molecular target: Matrix metalloproteinase-9 (Homo sapiens, UniProt P14780); test: Inhibition of human MMP9
Matrix metalloproteinase-9, sequence (P14780 whole entry): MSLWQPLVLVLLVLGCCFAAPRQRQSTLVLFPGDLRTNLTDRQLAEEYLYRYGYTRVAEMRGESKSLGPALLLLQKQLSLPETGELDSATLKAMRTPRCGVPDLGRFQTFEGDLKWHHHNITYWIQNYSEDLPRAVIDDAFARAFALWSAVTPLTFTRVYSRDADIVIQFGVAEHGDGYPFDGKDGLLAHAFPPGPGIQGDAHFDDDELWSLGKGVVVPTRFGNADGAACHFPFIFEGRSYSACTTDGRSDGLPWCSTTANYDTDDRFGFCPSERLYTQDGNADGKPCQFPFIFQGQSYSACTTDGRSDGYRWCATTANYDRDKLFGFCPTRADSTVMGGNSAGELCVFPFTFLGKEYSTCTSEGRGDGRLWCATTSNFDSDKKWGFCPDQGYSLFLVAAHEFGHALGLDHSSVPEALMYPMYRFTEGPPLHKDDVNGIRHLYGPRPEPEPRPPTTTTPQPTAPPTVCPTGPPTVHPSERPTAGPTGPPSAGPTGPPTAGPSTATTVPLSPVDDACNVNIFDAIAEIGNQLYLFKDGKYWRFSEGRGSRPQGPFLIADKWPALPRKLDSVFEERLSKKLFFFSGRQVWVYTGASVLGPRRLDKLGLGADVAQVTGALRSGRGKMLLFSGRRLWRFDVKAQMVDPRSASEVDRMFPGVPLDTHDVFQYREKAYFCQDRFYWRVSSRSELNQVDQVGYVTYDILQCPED

`C[C@@](CCc1ccc(-c2ccccc2)cc1)(C(=O)NO)S(C)(=O)=O` showed an MIC90 (Klebsiella aerogenes) of 4 µg/mL (≈ 11.5 µM), a Ki (Stromelysin-2) greater than 10 µM and an MIC90 (Klebsiella pneumoniae) of 16 µg/mL (≈ 46.1 µM). The Ki [1] was greater than 10 µM, the Ki (Interstitial collagenase) was greater than 10 µM and the MIC (Pseudomonas aeruginosa [2]) was 0.008 µg/mL (≈ 0.023 µM). It also gave a Ki [3] greater than 10 µM, an AUC [4] of 2800 ng·h/mL and an MIC90 (Pseudomonas aeruginosa [5]) of 4 µg/mL (≈ 11.5 µM). It also gave an IC50 [6] of 0.34 µM, a Ki [6] of 0.25 µM and an MIC90 (Escherichia coli) of 2 µg/mL (≈ 5.76 µM). It also gave a Ki [7] greater than 10 µM, a Ki (Stromelysin-1) greater than 10 µM and a Ki [8] greater than 10 µM. It also gave a Vd [9] of 2.7 L/kg, an MIC90 (Citrobacter freundii) of 8 µg/mL (≈ 23 µM) and a Ki (Matrilysin) greater than 10 µM. The Ki [10] was greater than 10 µM, the Ki (Collagenase 3) was 7.73 µM and the fraction unbound [11] was 0.02. The Ki [12] was greater than 10 µM, the MIC (Staphylococcus aureus) was greater than 64 µg/mL and the Ki [13] was greater than 10 µM. It also gave a Ki [14] greater than 10 µM, an ED50 (Pseudomonas aeruginosa [15]) of 63.4 mg/kg and an FC (Pseudomonas aeruginosa [16]) of 6.2. It also gave a half-life [17] of 3.2 h, an ED50 (Pseudomonas aeruginosa [18]) of 35 mg/kg and an MIC50 (Pseudomonas aeruginosa [19]) of 0.5 µg/mL (≈ 1.44 µM). The MIC90 (Pseudomonas aeruginosa [19]) was 2 µg/mL (≈ 5.76 µM), the Ki [20] was 1.35 µM and the Ki (Neutrophil collagenase) was greater than 10 µM. The MIC90 (Acinetobacter baumannii) was 32 µg/mL (≈ 92.1 µM), the IC50 [21] was 18 µM and the inhibition [22] was greater than 50%. It also gave an MIC (Pseudomonas aeruginosa [23]) of 0.125 µg/mL (≈ 0.36 µM), a clearance [24] of 58 mL/min/kg and a Ki [25] greater than 10 µM.
